Laboratory results published in patent US20200305426A1, “BOOSTERS FOR ANTIMICROBIAL, PRESERVATIVE AND BIOCIDAL APPLICATIONS” (EMERALD KALAMA CHEMICAL, LLC, priority 2017, published 2020).

Columns and labels:
[1] = system: S. aureus, E. coli, P. aeruginosa, C. albicans, and A. brasiliensis; experiment: Challenge test in skin lotion formulation, European Pharmacopeia criteria; format: cell-based; conditions: for European Pharmacopeia two-day and 14-day criteria: skin lotion pH 6.5; for European Pharmacopeia 14-day criteria / European Pharmacopeia two-day criteria: skin lotion; for European Pharmacopeia 14-day criteria: 0.25 wt. % booster with 0.5 wt. % sodium benzoate and 0.66 wt. % benzyl alcohol; for European Pharmacopeia two-day criteria: 0.25 wt. % booster with 0.5 wt. % sodium benzoate and 1 wt. % benzyl alcohol
Protocol: (§1) For the European Pharmacopeia, a “pass” test for efficacy is a two-log reduction for bacteria after two days, a three-log reduction in bacteria after […], a two-log reduction in mold and yeast at 14 days and no increase at 28 days.
Skin Lotion Formulation Experimental—An exemplary, model skin lotion having a pH of 6.5 as set forth below in Table 1 was prepared for testing. The invention is not limited to use in this specific lotion but was used to illustrate the advantages of the invention.
In this example, 3-phenyl propanol was used to enhance the performance of low concentrations of sodium benzoate and benzyl alcohol. This example evaluated boosting performance of 3-phenyl propanol in a skin lotion formulation having a pH of 6.5, the ingredients of which are listed in Table 1. Each formulation contained 0.25 wt. % of sodium benzoate and 0.25 wt. % of benzyl alcohol.
(§2) In this example, EDTA was used to enhance the performance of sodium benzoate and benzyl alcohol in a skin lotion formulation at pH, the ingredients of which are set forth in Table 1. Each formulation contained 0.5 wt. % of sodium benzoate and 0.25 wt. % of EDTA with benzyl alcohol varying up to 1 wt. %. The control was comprised of 0.5 wt. % sodium benzoate and 1 wt. % benzyl alcohol without EDTA.
as §2, with “example, sodium gluconate” for “example, EDTA”, “at pH 6.5,” for “at pH,”, “of sodium gluconate,” for “of EDTA”, “control” for “control was”, “comprised” for “comprised of”, “without sodium gluconate.” for “without EDTA.”
In this example, caprylyl glycol was used to enhance the performance of sodium benzoate and benzyl alcohol in a skin lotion formulation at pH 6.5, the ingredients of which are set forth in Table 1. FIGS. 27 and 28 reflect log reduction data of colony forming units (CFU) of microbe strains exposed to sodium benzoate, benzyl alcohol, and caprylyl glycol concentrations in skin lotion media after two and fourteen days. […] A control was utilized comprising 0.5 wt. % sodium benzoate and 1 wt. % benzyl alcohol without caprylyl glycol.

[2] = system: A. brasiliensis, C. albicans, E. coli, P. aeruginosa, and S. aureus; experiment: Challenge test (USP-51 / European Pharmacopeia) in tryptic soy broth, log reduction of CFU; format: cell-based
Pseudomonas aeruginosa = conditions: tryptic soy broth pH 6.5; with 0.25 wt. % sodium benzoate and 0.25 wt. % benzyl alcohol; two days
Excerpt: (§3) Challenge Testing Methodology—Experimental—Several industry standard testing methodologies exist for evaluating antimicrobial efficacy. Two common examples of such standards include United States Pharmacopeia (USP 51) and European Pharmacopeia (EP) testing methodology. These methodologies are particularly useful in that they have criteria and methodologies distinguishing between oral products, topical products and pharmaceutical products, among others.
In conducting the testing, the compound or product to be evaluated is separated out into individual containers, each being challenged with one of the method-specified microorganisms (S. aureus—ATCC 6538 USP51/EP, E. coli—ATCC 8739 EP, P. aeruginosa—ATCC 9027 USP51/EP, C. albicans—ATCC 10231 USP51/EP, and A. brasiliensis—ATCC 16404 USP51/EP) at a concentration of >1×10^5 CFU/g or ml. The initial concentration of each microorganism is determined by inoculating a control substance and using standard dilution and plating techniques. […] The inoculated broth is held at room temperature and is evaluated at specific intervals. USP-51 evaluates at the 14-day and 28-day intervals. EP evaluates results at 2-day, 7-day, 14-day, and 28-day. […] After a period of incubation (48 hours for bacteria, up to 5 days for yeast and mold) surviving microorganisms are counted, and the log reduction of each microorganism at each interval is reported. […]

[3] = system: K. aerogenes (ATCC 13048) and P. aeruginosa (ATCC 9027); experiment: Challenge test in tryptic soy broth at pH 9.0, log reduction of CFU; format: cell-based; conditions: 2.5 wt. % alone; tryptic soy broth pH 9.0; up to one week
Excerpt: FIG. 29 reflects log reduction data for colony forming units (CFU) of microbe strains in tryptic soy broth growth media at pH 9.0 up to 28 days.
FIG. 30 reflects log reduction data for colony forming units (CFU) of microbe strains exposed to benzylamine at 2.5 wt. % in tryptic soy broth at pH 9.0 up to one week.
Strains of K. aerogenes (ATCC 13048) and P. aeruginosa (ATCC 9027) were utilized for testing as they are commonly found in many water-based products, including without limitation cosmetics and coatings. These organisms were challenged into the soy broth using the same methods as in the other examples. Time points were selected based on time points from ASTM 2574, which is a method for evaluating antimicrobial efficacy in waterborne emulsion based paints.

[4] = system: A. brasiliensis, C. albicans, E. coli, P. aeruginosa, and S. aureus; experiment: Challenge test (USP-51 / European Pharmacopeia) in tryptic soy broth, log reduction of CFU; format: cell-based; conditions: tryptic soy broth pH 6.5
Excerpt: as §3
In conducting the testing, the compound or product to be evaluated is separated out into individual containers, each being challenged with one of the method-specified microorganisms (S. aureus—ATCC 6538 USP51/EP, E. coli—ATCC 8739 EP, P. aeruginosa—ATCC 9027 USP51/EP, C. albicans—ATCC 10231 USP51/EP, and A. brasiliensis—ATCC 16404 USP51/EP) at a concentration of >1×10^5 CFU/g or ml. The initial concentration of each microorganism is determined by inoculating a control substance and using standard dilution and plating techniques. […] The inoculated broth is held at room temperature and is evaluated at specific intervals. USP-51 evaluates at the 14-day and 28-day intervals. EP evaluates results at 2-day, 7-day, 14-day, and 28-day. At each contact time, the inoculated product is chemically neutralized and plated using standard dilution and plating techniques. After a period of incubation (48 hours for bacteria, up to 5 days for yeast and mold) surviving microorganisms are counted, and the log reduction of each microorganism at each interval is reported.
For the European Pharmacopeia, a “pass” test for efficacy is a two-log reduction for bacteria after two days, a three-log reduction in bacteria after […], a two-log reduction in mold and yeast at 14 days and no increase at 28 days. For the USP-51, a two-log reduction in bacteria is required at 14 days and no increase at 28 days. For mold and yeast, USP-51 requires no increase at 14 days and 28 days. “No increase” is defined as a […]. […]
The challenge testing was conducted by a Food and Drug Administration (FDA) certified outside testing lab utilizing standard USP-51 and European Pharmacopeia methodologies as summarized in the Challenge Testing Methodology section above. Antimicrobial efficacy was determined in tryptic soy broth growth media, pH-balanced with sodium hydroxide or hydrochloric acid as required to achieve specific pH ranges. […]
The boosting efficacy of various concentrations of EDTA (0 to 0.5 wt. %, with “0” being a control without the EDTA booster) in tryptic soy broth growth media at pH 6.5 was evaluated against various microbes (A. brasiliensis, C. albicans, E. coli, P. aeruginosa, and S. aureus). […]

A. brasiliensis = experiment: Challenge test in tryptic soy broth, log reduction of CFU; format: cell-based; conditions: with 0.25 wt. % sodium benzoate and 0.25 wt. % benzyl alcohol, 14 and 28 days
Protocol: as §1
Data was reported at 30 minutes, two days, fourteen days and twenty-eight days.
[…] The data was collected at 30 minutes, two days, fourteen days and twenty-eight days.

[5] = tryptic soy broth pH 8, booster at various concentrations with 0.25 wt. % sodium benzoate and 0.25 wt. % benzyl alcohol

OCCCc1ccccc1 [3-phenyl propanol]
European Pharmacopeia two-day and 14-day criteria ([1]; 0.35 wt. % booster with 0.25 wt. % sodium benzoate and 0.25 wt. % benzyl alcohol): met the two-day and 14-day criteria

O=C(O)CN(CCN(CC(=O)O)CC(=O)O)CC(=O)O [EDTA, ethylenediaminetetraacetic acid]
European Pharmacopeia 14-day criteria [1]: met the 14-day criteria | European Pharmacopeia two-day criteria [1]: met the two-day criteria | antimicrobial performance (log reduction of CFU) ([2]; tryptic soy broth pH 6.5, booster 0 to 0.5 wt. % with 0.25 wt. % sodium benzoate and 0.25 wt. % benzyl alcohol, 30 minutes, two, fourteen, twenty-eight days): improved antimicrobial performance | log reduction as a function of booster concentration ([2]; tryptic soy broth pH 8.0, booster 0 to 0.5 wt. % with 0.25 wt. % sodium benzoate and 0.25 wt. % benzyl alcohol): increased log reduction with increasing concentrations | antimicrobial performance (log reduction of CFU) [2, 5]: improved antimicrobial performance | activity against Pseudomonas aeruginosa (Pseudomonas aeruginosa): particularly good activity

OCc1ccccc1 [benzyl alcohol, reference compound]
antimicrobial effectiveness (log reduction of CFU) compared to control [3]: exactly the same as for benzylamine

NCc1ccccc1 [benzylamine]
antimicrobial effectiveness (log reduction of CFU) compared to control [3]: antimicrobial effectiveness achieved

CCCCCCC(O)CO (stereo not drawn) [caprylyl glycol]
European Pharmacopeia two-day and 14-day criteria ([1]; 0.5 wt. % booster with 0.25 wt. % sodium benzoate and 0.25 wt. % benzyl alcohol): met the two-day and 14-day criteria | antimicrobial boosting potential at lowest use concentration ([4]; 1 wt. % booster with 0.25 wt. % sodium benzoate and 0.25 wt. % benzyl alcohol): outstanding antimicrobial boosting potential | two-day log reduction ([4]; caprylyl glycol up to 5 wt. %, regardless of concentration, 0.25 wt. % sodium benzoate and 0.25 wt. % benzyl alcohol, two days): two-log reduction achieved against all microbes tested | antimicrobial performance (log reduction of CFU) [2, 5]: improved antimicrobial performance | two-day log reduction ([2]; tryptic soy broth pH 8, caprylyl glycol up to 5 wt. %, regardless of concentration, 0.25 wt. % sodium benzoate and 0.25 wt. % benzyl alcohol, two days): two-log reduction achieved against all microbes tested

O=C([O-])[C@H](O)[C@@H](O)[C@H](O)[C@H](O)CO.[Na+] [sodium gluconate]
European Pharmacopeia 14-day criteria [1]: met the 14-day criteria | European Pharmacopeia two-day criteria [1]: met the two-day criteria | log reduction as a function of booster concentration ([4]; booster 0 to 0.5 wt. % with 0.25 wt. % sodium benzoate and 0.25 wt. % benzyl alcohol, seen at 14 and 28 days): increased log reduction with increased concentration | booster strength compared with EDTA ([4]; sodium benzoate/benzyl alcohol combination): not as strong a booster as EDTA | activity against the mold A. brasiliensis (A. brasiliensis; tryptic soy broth pH 6.5): Good activity | activity against the mold A. brasiliensis (A. brasiliensis; tryptic soy broth pH 8): Particularly good activity | antimicrobial performance (log reduction of CFU) [2, 5]: improved antimicrobial performance
